{"source": "ChEMBL document CHEMBL4619793", "about": "“Pyrazolo[4,3-d]pyrimidine Derivatives as a Novel Hypoxia-Inducible Factor Prolyl Hydroxylase Domain Inhibitor for the Treatment of Anemia” (ACS Med Chem Lett, 2020)", "key": {"[1]": {"test": "Solubility of the compound in buffer at pH 6.5", "assay_type": "physicochemical"}, "Mus musculus [2]": {"tested_on": "Mus musculus", "test": "In vivo inhibition of HIF-PHD2 in ICR mouse assessed as serum erythropoietin level at 10 mg/kg, po administered as single dose measured after 6 hrs by immunoassay (reference value: 125 pg/ml)", "assay_type": "functional"}, "Mus musculus [3]": {"tested_on": "Mus musculus", "test": "In vivo inhibition of HIF-PHD2 in ICR mouse assessed as serum erythropoietin level at 30 mg/kg, po administered as single dose measured after 6 hrs by immunoassay (reference value: 125 pg/ml)", "assay_type": "functional"}, "[4]": {"test": "Cmax in Sprague-Dawley rat at 10 mg/kg, po", "assay_type": "ADME, organism-based", "design": "dose 10 mg/kg, route oral", "settings": "in vivo"}, "[5]": {"test": "AUC (0 to infinity) in Sprague-Dawley rat at 10 mg/kg, po", "assay_type": "ADME, organism-based", "design": "dose 10 mg/kg, time infinity, route oral", "settings": "in vivo"}, "[6]": {"test": "Oral bioavailability in Sprague-Dawley rat at 10 mg/kg", "assay_type": "ADME, organism-based", "settings": "in vivo"}, "[7]": {"test": "Cmax in Sprague-Dawley rat at 0.5 mg/kg, iv", "assay_type": "ADME, organism-based", "design": "dose 0.5 mg/kg, route intravenous", "settings": "in vivo"}, "[8]": {"test": "AUC (0 to infinity) in Sprague-Dawley rat at 0.5 mg/kg, iv", "assay_type": "ADME, organism-based", "design": "dose 0.5 mg/kg, route intravenous, time infinity", "settings": "in vivo"}, "[9]": {"test": "Total clearance in Sprague-Dawley rat at 0.5 mg/kg, iv", "assay_type": "ADME, organism-based", "settings": "in vivo"}, "[10]": {"test": "Volume of distribution at steady state in Sprague-Dawley rat at 0.5 mg/kg, iv", "assay_type": "ADME, organism-based", "settings": "in vivo, read-out: Vdss"}, "Mus musculus [11]": {"tested_on": "Mus musculus", "test": "In vivo inhibition of HIF-PHD2 in ICR mouse assessed as serum erythropoietin level at 100 mg/kg, po administered as single dose measured after 6 hrs by immunoassay (reference value: 146 pg/ml)", "assay_type": "functional"}, "[12]": {"target": "Egl nine homolog 1 (Rattus norvegicus) (UniProt P59722)", "sequence (P59722 whole entry)": "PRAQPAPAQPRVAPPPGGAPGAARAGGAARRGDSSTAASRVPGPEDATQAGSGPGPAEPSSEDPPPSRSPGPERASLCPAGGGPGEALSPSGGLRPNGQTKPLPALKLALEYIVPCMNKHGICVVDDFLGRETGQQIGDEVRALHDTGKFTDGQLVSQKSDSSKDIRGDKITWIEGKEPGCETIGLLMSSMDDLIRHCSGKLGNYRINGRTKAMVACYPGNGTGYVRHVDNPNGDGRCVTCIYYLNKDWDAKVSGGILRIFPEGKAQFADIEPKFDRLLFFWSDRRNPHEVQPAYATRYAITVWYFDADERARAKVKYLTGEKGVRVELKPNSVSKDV", "test": "In vivo inhibition of HIF-PHD2 in Sprague-Dawley rat assessed as increase in serum erythropoietin level at 10 mg/kg, po administered as single dose measured after 8 hrs by immunoassay", "assay_type": "functional, organism-based"}, "[13]": {"test": "Cmax in Sprague-Dawley rat at 1 mg/kg, po", "assay_type": "ADME, organism-based", "design": "dose 1 mg/kg, route oral", "settings": "in vivo"}, "[14]": {"test": "AUC (0 to infinity) in Sprague-Dawley rat at 1 mg/kg, po", "assay_type": "ADME, organism-based", "design": "dose 1 mg/kg, time infinity, route oral", "settings": "in vivo"}, "[15]": {"test": "Oral bioavailability in Sprague-Dawley rat at 1 mg/kg", "assay_type": "ADME, organism-based", "settings": "in vivo"}, "[16]": {"test": "Cmax in Sprague-Dawley rat at 1 mg/kg, iv", "assay_type": "ADME, organism-based", "design": "dose 1 mg/kg, route intravenous", "settings": "in vivo"}, "[17]": {"test": "AUC (0 to infinity) in Sprague-Dawley rat at 1 mg/kg, iv", "assay_type": "ADME, organism-based", "design": "dose 1 mg/kg, time infinity, route intravenous", "settings": "in vivo"}, "[18]": {"test": "Total clearance in Sprague-Dawley rat at 1 mg/kg, iv", "assay_type": "ADME, organism-based", "settings": "in vivo"}, "[19]": {"test": "Volume of distribution at steady state in Sprague-Dawley rat at 1 mg/kg, iv", "assay_type": "ADME, organism-based", "settings": "in vivo, read-out: Vdss"}, "Rattus norvegicus [20]": {"tested_on": "Rattus norvegicus", "test": "Antianemic activity in kidney excised-induced renal anemia Sprague-Dawley rat model assessed as improvement in blood hemoglobin level at 1 mg/kg, po administered once daily for 4 weeks measured 2 week post initial dose", "assay_type": "functional, organism-based"}, "Rattus norvegicus [21]": {"tested_on": "Rattus norvegicus", "test": "Antianemic activity in kidney excised-induced renal anemia Sprague-Dawley rat model assessed as improvement in blood hemoglobin level at 2 mg/kg, po administered once daily for 4 weeks measured 1 week post initial dose", "assay_type": "functional, organism-based"}}, "note": "Calls of active or inactive are those of the source. The calls are words filed in the database; no cut-off is given here.", "data": [{"smiles": "O=C(O)c1cnn(-c2nc3cnn(Cc4ccc(-c5ccc(F)cc5)c(F)c4)c3c(=O)[nH]2)c1", "values": [{"measurement": "solubility", "setting": "[1]", "result": 49, "unit": "µg/mL"}]}, {"smiles": "O=C(O)c1cnn(-c2nc3cnn(Cc4ccc(-c5ccccc5)cc4)c3c(=O)[nH]2)c1", "values": [{"measurement": "Activity", "setting": "Mus musculus [2]", "result": 63000, "unit": "pg/mL"}, {"measurement": "Activity", "setting": "Mus musculus [3]", "result": 89000, "unit": "pg/mL"}, {"measurement": "solubility", "setting": "[1]", "result": 9.5, "unit": "µg/mL"}, {"measurement": "Cmax", "setting": "[4]", "result": 2710, "unit": "ng/mL"}, {"measurement": "AUC(0-inf)", "setting": "[5]", "result": 17800, "unit": "ng·h/mL"}, {"measurement": "bioavailability", "setting": "[6]", "result": 16, "unit": "%"}, {"measurement": "Cmax", "setting": "[7]", "result": 4910, "unit": "ng/mL"}, {"measurement": "AUC(0-inf)", "setting": "[8]", "result": 5560, "unit": "ng·h/mL"}, {"measurement": "clearance", "setting": "[9]", "result": 1.52, "unit": "mL/min/kg"}, {"measurement": "Vd", "setting": "[10]", "result": 0.197, "unit": "L/kg"}]}, {"smiles": "O=C(O)c1cnn(-c2nc3cn(Cc4ccc(-c5ccccc5)cc4)nc3c(=O)[nH]2)c1", "values": [{"measurement": "Activity", "setting": "Mus musculus [11]", "result": 450, "unit": "pg/mL"}]}, {"smiles": "C[C@@H](c1ccc(Cl)c(Cl)c1)n1ncc2nc(-n3cc(C(=O)O)cn3)[nH]c(=O)c21", "values": [{"measurement": "solubility", "setting": "[1]", "result": 75, "unit": "µg/mL"}]}, {"smiles": "C[C@@H](c1cc(Cl)ccc1Cl)n1ncc2nc(-n3cc(C(=O)O)cn3)[nH]c(=O)c21", "values": [{"measurement": "solubility", "setting": "[1]", "result": "> 1000", "unit": "µg/mL"}, {"measurement": "inhibition", "setting": "[12]", "result": "Active"}, {"measurement": "Cmax", "setting": "[13]", "result": 1840, "unit": "ng/mL"}, {"measurement": "AUC(0-inf)", "setting": "[14]", "result": 23500, "unit": "ng·h/mL"}, {"measurement": "bioavailability", "setting": "[15]", "result": 77, "unit": "%"}, {"measurement": "Cmax", "setting": "[16]", "result": 12400, "unit": "ng/mL"}, {"measurement": "AUC(0-inf)", "setting": "[17]", "result": 30400, "unit": "ng·h/mL"}, {"measurement": "clearance", "setting": "[18]", "result": 0.567, "unit": "mL/min/kg"}, {"measurement": "Vd", "setting": "[19]", "result": 0.249, "unit": "L/kg"}, {"measurement": "Activity", "setting": "Rattus norvegicus [20]", "result": "Active"}, {"measurement": "Activity", "setting": "Rattus norvegicus [21]", "result": "Active"}]}, {"smiles": "O=C(O)c1cnn(-c2nc3cnn(Cc4ccc(Cl)c(Cl)c4)c3c(=O)[nH]2)c1", "values": [{"measurement": "solubility", "setting": "[1]", "result": 88, "unit": "µg/mL"}]}]}
